How the values were obtained:
Assay type in all cases: in vivo
Digitaria ciliaris [1] = assay: Test Example 4: herbicidal effect test by stem and leaf treatment in upland field; conditions: Digitaria ciliaris; 120 g per 10 ares; sprayed seven days after sowing, upland soil; 14 days after application; read-out: weed inhibition rate
[2] = system: Echinochloa crus-galli var. formosensis; assay: Test Example 6: herbicidal effect test by application during growth period of paddy rice (low dose); conditions: Echinochloa crus-galli; 7.5 g per 10 ares; applied seven days after sowing, flooded pots; 14 days after application; read-out: weed inhibition rate
Summary of the method: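 Paddy-soil pots, flooded ~3 cm after sowing weed seeds at 0-1 cm depth, greenhouse-grown. Seven days after sowing, diluted emulsifiable concentrate applied by dropper at 7.5 g active ingredient per 10 ares. Weed inhibition rate (%) scored 14 days after application, in duplicate.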

Digitaria ciliaris [3] = assay: Test Example 8: herbicidal effect test by stem and leaf treatment in upland field (low dose); conditions: Digitaria ciliaris; 7.5 g per 10 ares; sprayed seven days after sowing, upland soil; 14 days after application; read-out: weed inhibition rate
Echinochloa crus-galli [4] = assay: as above; conditions: Echinochloa crus-galli; 7.5 g per 10 ares; sprayed seven days after sowing, upland soil; 14 days after application; read-out: weed inhibition rate
Echinochloa crus-galli [5] = assay: Test Example 4: herbicidal effect test by stem and leaf treatment in upland field; conditions: Echinochloa crus-galli; 120 g per 10 ares; sprayed seven days after sowing, upland soil; 14 days after application; read-out: weed inhibition rate
Digitaria ciliaris [6] = assay: Test Example 3: herbicidal effect test by soil application in upland field; conditions: Digitaria ciliaris, 120 g per 10 ares, sprayed one day after sowing, 14 days after application, read-out: weed inhibition rate
Summary of the method: (§1)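 Pre-emergence test: seeds mixed into top 1 cm of alluvial loam upland soil in pots; emulsifiable concentrate diluted in water sprayed on soil one day after sowing at 100 L/10 a, 120 g a.i./10 a. Weed inhibition rate (%) scored at 14 days, in duplicate.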

Echinochloa crus-galli [7] = assay: as above; conditions: Echinochloa crus-galli, 120 g per 10 ares, sprayed one day after sowing, 14 days after application, read-out: weed inhibition rate
Summary of the method: as §1

Echinochloa crus-galli [8] = assay: Test Example 7: herbicidal effect test by soil application in upland field (low dose); conditions: Echinochloa crus-galli, 7.5 g per 10 ares, sprayed one day after sowing, 14 days after application, read-out: weed inhibition rate
Summary of the method: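 Upland soil (alluvial loam) pots, seeds mixed into top 1 cm layer → EC formulation diluted with water, sprayed onto soil 1 d post-sowing, 100 L/10 a → 7.5 g a.i./10 a → inhibition (%) scored at 14 d, n=2.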

Monochoria vaginalis = assay: Test Example 1: herbicidal effect test by soil application in paddy rice; conditions: 120 g active ingredient per 10 ares, applied immediately after sowing, flooded pots, 14 days after application; for pest or weed control at 1200 g/ha: Pontederia vaginalis, soil, 336 h, read-out: weed inhibition rate
Summary of the method: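 Pre-emergence test in puddled, flooded paddy soil (about 3 cm water), 30 seeds per weed sown at 0–1 cm depth in a glass greenhouse. Emulsifiable concentrate diluted in water and dropped onto the pots straight after sowing at 120 g a.i. per 10 ares. Weed inhibition (%) scored at 14 days, in duplicate.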

[9] = system: Echinochloa crus-galli var. formosensis; assay: as above; conditions: 120 g active ingredient per 10 ares, applied immediately after sowing, flooded pots, 14 days after application; for pest or weed control at 1200 g/ha: Echinochloa crus-galli, soil, 336 h, read-out: weed inhibition rate
Summary of the method: (§2)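 Weeds sown 0–1 cm deep (30 seeds each) into fertilized, puddled paddy soil in Wagner pots. Pots are flooded immediately, water held near 3 cm, and the diluted emulsifiable concentrate is dripped in at once, delivering 120 g active ingredient per 10 ares under glass-greenhouse management.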

Scirpus juncoides = assay: as above; conditions: 120 g active ingredient per 10 ares, applied immediately after sowing, flooded pots, 14 days after application; for pest or weed control at 1200 g/ha: Schoenoplectiella juncoides, soil, 336 h, read-out: weed inhibition rate
Summary of the method: as §2

C#CCO[C@@H]1C[C@]2(C)O[C@@]1(C(C)C)C[C@H]2OCc1ccccc1F [1-931, (1S,2R,4R,5R)-2-[(2-fluorophenyl)methoxy]-1-methyl-4-isopropyl-5-prop-2-ynoxy-7-oxabicyclo[2.2.1]heptane]
≥ 80%: inhibition at 1200 g/ha (Digitaria ciliaris [1]) | inhibition at 75 g/ha [2] | inhibition at 75 g/ha (Digitaria ciliaris [3]) | inhibition at 75 g/ha (Echinochloa crus-galli [4]) | inhibition at 1200 g/ha (Echinochloa crus-galli [5]) | inhibition at 1200 g/ha (Digitaria ciliaris [6]) | inhibition at 1200 g/ha (Echinochloa crus-galli [7]) | inhibition at 75 g/ha (Echinochloa crus-galli [8]) | pest or weed control at 1200 g/ha (Monochoria vaginalis) | pest or weed control at 1200 g/ha [9] | pest or weed control at 1200 g/ha (Scirpus juncoides)

CC(C)C12CC(OCc3ccccc3F)C(C)(CC1Br)O2 (centres unmarked) [1-1355, 5-bromo-2-[(2-fluorophenyl)methoxy]-1-methyl-4-isopropyl-7-oxabicyclo[2.2.1]heptane]
≥ 80%: inhibition at 1200 g/ha (Digitaria ciliaris [1]) | inhibition at 75 g/ha [2] | inhibition at 75 g/ha (Digitaria ciliaris [3]) | inhibition at 75 g/ha (Echinochloa crus-galli [4]) | inhibition at 1200 g/ha (Echinochloa crus-galli [5]) | inhibition at 1200 g/ha (Digitaria ciliaris [6]) | inhibition at 1200 g/ha (Echinochloa crus-galli [7]) | inhibition at 75 g/ha (Echinochloa crus-galli [8]) | pest or weed control at 1200 g/ha (Monochoria vaginalis) | pest or weed control at 1200 g/ha [9] | pest or weed control at 1200 g/ha (Scirpus juncoides)

CC(C)[C@]12C[C@@H](OCc3c(F)cccc3Br)[C@](C)(C[C@@H]1Br)O2 [1-1600, (1S,2R,4R,5S)-5-bromo-2-[(2-bromo-6-fluorophenyl)methoxy]-1-methyl-4-isopropyl-7-oxabicyclo[2.2.1]heptane]
≥ 80%: inhibition at 1200 g/ha (Digitaria ciliaris [1]) | inhibition at 75 g/ha [2] | inhibition at 75 g/ha (Digitaria ciliaris [3]) | inhibition at 75 g/ha (Echinochloa crus-galli [4]) | inhibition at 1200 g/ha (Echinochloa crus-galli [5]) | inhibition at 1200 g/ha (Digitaria ciliaris [6]) | inhibition at 1200 g/ha (Echinochloa crus-galli [7]) | inhibition at 75 g/ha (Echinochloa crus-galli [8]) | pest or weed control at 1200 g/ha (Monochoria vaginalis) | pest or weed control at 1200 g/ha [9] | pest or weed control at 1200 g/ha (Scirpus juncoides)

CC(C)[C@]12C[C@@H](OCc3ccccc3F)[C@](C)(C[C@@H]1OCC1CC1)O2 [1-1603, (1S,2R,4R,5S)-5-(cyclopropylmethoxy)-2-[(2-fluorophenyl)methoxy]-1-methyl-4-isopropyl-7-oxabicyclo[2.2.1]heptane]
≥ 80%: inhibition at 1200 g/ha (Digitaria ciliaris [1]) | inhibition at 75 g/ha [2] | inhibition at 75 g/ha (Digitaria ciliaris [3]) | inhibition at 75 g/ha (Echinochloa crus-galli [4]) | inhibition at 1200 g/ha (Echinochloa crus-galli [5]) | inhibition at 1200 g/ha (Digitaria ciliaris [6]) | inhibition at 1200 g/ha (Echinochloa crus-galli [7]) | inhibition at 75 g/ha (Echinochloa crus-galli [8]) | pest or weed control at 1200 g/ha (Monochoria vaginalis) | pest or weed control at 1200 g/ha [9] | pest or weed control at 1200 g/ha (Scirpus juncoides)

CCCO[C@H]1C[C@]2(C)O[C@@]1(C(C)C)C[C@H]2OCc1ccccc1F [1-1604, (1S,2R,4R,SS)-2-[(2-fluorophenyl)methoxy]-1-methyl-4-isopropyl-5-propoxy-7-oxabicyclo[2.2.1]heptane]
≥ 80%: inhibition at 1200 g/ha (Digitaria ciliaris [1]) | inhibition at 75 g/ha [2] | inhibition at 75 g/ha (Digitaria ciliaris [3]) | inhibition at 75 g/ha (Echinochloa crus-galli [4]) | inhibition at 1200 g/ha (Echinochloa crus-galli [5]) | inhibition at 1200 g/ha (Digitaria ciliaris [6]) | inhibition at 1200 g/ha (Echinochloa crus-galli [7]) | inhibition at 75 g/ha (Echinochloa crus-galli [8]) | weed inhibition rate (Monochoria vaginalis) | weed inhibition rate [9] | weed inhibition rate (Scirpus juncoides)

Cc1ccccc1CO[C@@H]1C[C@]2(C(C)C)O[C@@]1(C)CC2=O [2-3, (1R,4S,5R)-1-isopropyl-4-methyl-5-((2-methylbenzyl)oxy)-7-oxabicyclo[2.2.1]heptan-2-one]
≥ 80%: inhibition at 1200 g/ha (Digitaria ciliaris [1]) | inhibition at 75 g/ha [2] | inhibition at 75 g/ha (Digitaria ciliaris [3]) | inhibition at 75 g/ha (Echinochloa crus-galli [4]) | inhibition at 1200 g/ha (Echinochloa crus-galli [5]) | inhibition at 1200 g/ha (Digitaria ciliaris [6]) | inhibition at 1200 g/ha (Echinochloa crus-galli [7]) | inhibition at 75 g/ha (Echinochloa crus-galli [8]) | pest or weed control at 1200 g/ha (Monochoria vaginalis) | pest or weed control at 1200 g/ha [9] | pest or weed control at 1200 g/ha (Scirpus juncoides)

CC(C)[C@]12C[C@@H](OCc3ccccc3F)[C@](C)(CC1=O)O2 [2-9, (1R,4S,5R)-5-((2-fluorobenzyl)oxy)-1-isopropyl-4-methyl-7-oxabicyclo[2.2.1]heptan-2-one]
≥ 80%: inhibition at 1200 g/ha (Digitaria ciliaris [1]) | inhibition at 75 g/ha [2] | inhibition at 75 g/ha (Digitaria ciliaris [3]) | inhibition at 75 g/ha (Echinochloa crus-galli [4]) | inhibition at 1200 g/ha (Echinochloa crus-galli [5]) | inhibition at 1200 g/ha (Digitaria ciliaris [6]) | inhibition at 1200 g/ha (Echinochloa crus-galli [7]) | inhibition at 75 g/ha (Echinochloa crus-galli [8]) | pest or weed control at 1200 g/ha (Monochoria vaginalis) | pest or weed control at 1200 g/ha [9] | pest or weed control at 1200 g/ha (Scirpus juncoides)

CC(C)[C@]12C[C@@H](OCc3ccccc3Br)[C@](C)(CC1=O)O2 [2-13, (1R,4S,5R)-5-((2-bromobenzyl)oxy)-1-isopropyl-4-methyl-7-oxabicyclo[2.2.1]heptan-2-one]
≥ 80%: inhibition at 1200 g/ha (Digitaria ciliaris [1]) | inhibition at 75 g/ha [2] | inhibition at 75 g/ha (Digitaria ciliaris [3]) | inhibition at 75 g/ha (Echinochloa crus-galli [4]) | inhibition at 1200 g/ha (Echinochloa crus-galli [5]) | inhibition at 1200 g/ha (Digitaria ciliaris [6]) | inhibition at 1200 g/ha (Echinochloa crus-galli [7]) | inhibition at 75 g/ha (Echinochloa crus-galli [8]) | pest or weed control at 1200 g/ha (Monochoria vaginalis) | pest or weed control at 1200 g/ha [9] | pest or weed control at 1200 g/ha (Scirpus juncoides)

CC(C)[C@]12C[C@@H](OCc3cccc(F)c3F)[C@](C)(CC1=O)O2 [2-14, (1R,4S,5R)-5-((2,3-difluorobenzyl)oxy)-1-isopropyl-4-methyl-7-oxabicyclo[2.2.1]heptan-2-one]
≥ 80%: inhibition at 1200 g/ha (Digitaria ciliaris [1]) | inhibition at 75 g/ha [2] | inhibition at 75 g/ha (Digitaria ciliaris [3]) | inhibition at 75 g/ha (Echinochloa crus-galli [4]) | inhibition at 1200 g/ha (Echinochloa crus-galli [5]) | inhibition at 1200 g/ha (Digitaria ciliaris [6]) | inhibition at 1200 g/ha (Echinochloa crus-galli [7]) | inhibition at 75 g/ha (Echinochloa crus-galli [8]) | pest or weed control at 1200 g/ha (Monochoria vaginalis) | pest or weed control at 1200 g/ha [9] | pest or weed control at 1200 g/ha (Scirpus juncoides)

CC(C)[C@]12C[C@@H](OCc3c(F)cccc3F)[C@](C)(CC1=O)O2 [2-20, (1R,4S,5R)-5-((2,6-difluorobenzyl)oxy)-1-isopropyl-4-methyl-7-oxabicyclo[2.2.1]heptan-2-one]
≥ 80%: inhibition at 1200 g/ha (Digitaria ciliaris [1]) | inhibition at 75 g/ha [2] | inhibition at 75 g/ha (Digitaria ciliaris [3]) | inhibition at 75 g/ha (Echinochloa crus-galli [4]) | inhibition at 1200 g/ha (Echinochloa crus-galli [5]) | inhibition at 1200 g/ha (Digitaria ciliaris [6]) | inhibition at 1200 g/ha (Echinochloa crus-galli [7]) | inhibition at 75 g/ha (Echinochloa crus-galli [8]) | pest or weed control at 1200 g/ha (Monochoria vaginalis) | pest or weed control at 1200 g/ha [9] | pest or weed control at 1200 g/ha (Scirpus juncoides)
